Assay results from patent US3985758A, “1,4-Dihydropyridine derivatives” (Yamanouchi Pharmaceutical Co., Ltd., priority 1973, dated 1976).
Values after ≈ are worked out from the molar mass of the structure shown. Structures can show the parent of a compound that is named as a salt. Where two headings read alike, the source gives them in different places.

Tests used:
[1] = Solubility in water at 25° C; assay type: physicochemical
in vivo = conditions: mouse, in vivo, iv
Procedure: LD50 was determined by using mice.
2. Acute toxicity in mice
Male ICR weighing 25 to 32 g were used. The test compounds were injected into tail vein and LD 50 values were determined.

[2] = test system: vertebral and femoral blood flow; assay: Vertebral and femoral blood flow in anesthetized dogs; assay type: in vivo, mongrel dog; conditions: 0.01 mg/kg i.v. (0.01 or 0.03 mg/kg); for Blood pressure change (Δ mmHg): femoral artery; for Separation ratio (percent increase of vertebral blood flow / that of femoral blood flow): significance vs SKF 24260
Procedure: Vertebral and femoral blood flow in anesthetized dogs.
Mongrel dogs of both sexes weighing from 12 to 27 kg were anesthetized with sodium pentobarbitol (30 mg/kg i.v.). In all experiments, trachea was cannulated and the animals were artificially ventilated with room air. Blood pressure in cannulated femoral artery was measured by means of a pressure transducer (Nihon Kohden, MPU 0.5). Vertebral and femoral blood flow were measured by a noncannulating electromagnetic flowmeter (Nihon Kohden, MF-25) positioned around the vessels. Recordings were made on an ink-writing polygraph (Nihon Kohden, RM-150 or RM-85). The test compounds were injected at a dose of 0.01 mg/kg into femoral vein.

guinea-pig ileum = assay: Spasmolytic activity in isolated guinea-pig ileum (Magnus apparatus); conditions: Cavia porcellus, ±S.E.
Procedure: Methods: Isolated guinea-pig ileum was suspended in Tyrodes solution by use of Magnus apparatus and the movements of the muscle were recorded in a kymograph by an isotonic lever.

femoral artery = assay: Direct vasodilating effect on femoral artery, constant volume perfusion; assay type: in vivo, mongrel dog; conditions: intra-arterial; ±SE; maximum response to papaverine 3000 μg i.a. = 100%
From the text: For the analysis of the selective effect on vasculature by the drugs, direct effect on cerebral (vertebral artery) and peripheral (femoral artery) vascular bed were studied by the method of the constant volume perfusion.
(§1) Heparin (1000 μ/Kg, i.v.) was used as an anticoagulant. The methods for perfusion of each artery were as following: 1) For the vertebral artery, the arterial blood led from the left common carotid artery was collected by the tygon tubing and perfused by the Sigma-motor pump (Mippleport N.Y. T-8) into the right vertebral artery. 2) For the femoral artery, the arterial blood led from the proximal femoral artery was perfused by the Sigma-motor pump into the distal femoral artery. […] All drugs were given into a rubber tube connected close to the each arterial cannula by a microinjector (Jintan Terumo, NSN-100).

vertebral artery = assay: Direct vasodilating effect on vertebral artery, constant volume perfusion; assay type: in vivo, mongrel dog; conditions: intra-arterial
From the text: as §1

[3] = compounds of the present invention, 25° C
[4] = compounds of the present invention, 25° C, at the given pH, read-out: Solubility

2,6-dimethyl-4-(2'-nitrophenyl)-1,4-dihydropyridine-3,5-dicarboxylic acid bis[β-(N-benzyl-N-methylaminethyl] ester hydrochloride [Example 9]
pH (of solubility determination) [1, 3]: 3.16 | solubility ([1]; compounds of the present invention, 25° C, at the given pH): 2.74%

CC1=C(C(=O)OCCCN(C)Cc2ccccc2)C(c2cccc([N+](=O)[O-])c2)C(C(=O)OC(C)C)=C(C)N1 (stereo not shown) [2,6-dimethyl-4-(3'-nitrophenyl)-1,4-dihydropyridine-3,5-dicarboxylic acid 3-isopropylester-5-γ-(N-benzyl-N-methylamino)propyl ester]
LD50 (in vivo): 10 mg/kg

CC1=C(C(=O)OCCN(C)Cc2ccccc2)C(c2cccc([N+](=O)[O-])c2)C(C(=O)OC(C)C)=C(C)N1 (stereo not drawn) [Example 1, 2,6-dimethyl-4-(3'-nitrophenyl)-1,4-dihydropyridine-3,5-dicarboxylic acid-3-isopropylester-5-β-(N-benzyl-N-methylamino)-ethyl ester hydrochloride]
pH (of solubility determination) [1, 3]: 4.12 | solubility [1, 4]: 3100 µg/mL

CC1=C(C(=O)OCCN(C)Cc2ccccc2)C(c2ccccc2[N+](=O)[O-])C(C(=O)OC(C)C)=C(C)N1 (stereo not drawn) [Example 4, 2,6-dimethyl-4-(2'-nitrophenyl)-1,4-dihydropyridine-3,5-dicarboxylic acid 3-isopropylester-5-β-(N-benzyl-N-methylamino)ethyl ester]
pH (of solubility determination) [1, 3]: 4.10 | solubility [1, 4]: 3200 µg/mL (≈ 6300 µM)

CCOC(=O)C1=C(C)NC(C)=C(C(=O)OCCN(C)Cc2ccccc2)C1c1cccc([N+](=O)[O-])c1 (stereo not drawn) [Example 6, 2,6-dimethyl-4-(3'-nitrophenyl)-1,4-dihydropyridine-3,5-dicarboxylic acid 3-ethylester-5-β-(N-benzyl-N-methylamino)ethyl ester]
pH (of solubility determination) [1, 3]: 4.20 | solubility [1, 4]: 2900 µg/mL (≈ 5880 µM)

CCOC(=O)C1=C(C)NC(C)=C(C(=O)OCCN(C)Cc2ccc(OC)cc2)C1c1cccc([N+](=O)[O-])c1 (stereo not drawn) [Example 14, 2,6-dimethyl-4-(3'-nitrophenyl)-1,4-dihydropyridine-3,5-dicarboxylic acid 3-ethyl ester 5-β-(N-methyl-N-p-methoxybenzylamino)ethyl ester]
pH (of solubility determination) [1, 3]: 4.17 | solubility [1, 4]: 1000 µg/mL (≈ 1910 µM)

COc1ccc(CN(C)CCOC(=O)C2=C(C)NC(C)=C(C(=O)OCCN(C)Cc3ccc(OC)cc3)C2c2cccc([N+](=O)[O-])c2)cc1 [Example 16, dihydrochloride]
pH (of solubility determination) [1, 3]: 3.20 | solubility [1, 4]: 25300 µg/mL

COC(=O)C1=C(C)NC(C)=C(C(=O)OCCN(C)Cc2ccccc2)C1c1ccccc1C(F)(F)F (stereo not drawn) [Example 24, 2,6-dimethyl-4-(o-trifluoromethyl-phenyl)-1,4-dihydropyridine-3,5-dicarboxylic acid 3-β-(N-benzyl-N-methylamino)ethyl ester 5-methyl ester hydrochloride]
pH (of solubility determination) [1, 3]: 3.91 | solubility [1, 4]: 2300 µg/mL | Femoral blood flow (FBF %) [2]: 67 ± 10.5% | Vertebral blood flow (VBF Δ %) [2]: 119 ± 20.4 Δ % | Blood pressure change (Δ mmHg) [2]: -28 ± 4.9 Δ mmHg | Separation ratio (percent increase of vertebral blood flow / that of femoral blood flow) [2]: 2.04 ± 0.53 | LD50 (in vivo): 23.7 mg/kg

COC(=O)C1=C(C)NC(C)=C(C(=O)OCCN(C)Cc2ccccc2)C1c1ccccc1[N+](=O)[O-] (stereo not drawn) [Example 36, 2,6-dimethyl-4-(2'-nitrophenyl)-1,4-dihydropyridine-3.5-dicarboxilic acid 3-methyl ester 5-β-(N-benzyl-N-methylamino) ethyl ester hydrochloride]
Femoral blood flow (FBF %) [2]: 83 ± 14.1% | Vertebral blood flow (VBF Δ %) [2]: 167 ± 31.7 Δ % | Blood pressure change (Δ mmHg) [2]: -26 ± 5.0 Δ mmHg | Separation ratio (percent increase of vertebral blood flow / that of femoral blood flow) [2]: 2.21 ± 0.56 | LD50 (in vivo): 14 mg/kg

COc1ccc(Cc2nccc3cc(OC)c(OC)cc23)cc1OC [Papaverine]
IC50 (guinea-pig ileum; read-out: Spasmolytic activity, 50% inhibition of contractile response, Acetylchloline 10^-7 g/ml): 11 µg/mL (≈ 32.4 µM) | IC50 (guinea-pig ileum; read-out: Spasmolytic activity, 50% inhibition of contractile response, BaCl2 2×10^-4 g/ml): 7.2 µg/mL (≈ 21.2 µM) | IC50 (guinea-pig ileum; read-out: Spasmolytic activity, 50% inhibition of contractile response, Histamine 10^-7 g/ml): 7 µg/mL (≈ 20.6 µM) | Vasodilation ED50, femoral artery (femoral artery): 48.8 ± 3.73 µg | Selectivity ratio (ED50 in femoral artery/ED50 in vertebral artery) (vertebral artery; anesthetized dogs): 0.67 | Vasodilation ED50, vertebral artery (vertebral artery; ±SE, maximum response to papaverine 3000 μg i.a. = 100%): 72.8 ± 8.71 µg | Heart rate (Δbeats/min.±SE) (anesthetized dogs; 0.1 mg/Kg i.v.): 8±1.5 Δbeats/min. | Mean blood pressure (ΔmmHg±SE) (anesthetized dogs; 0.1 mg/Kg i.v.): -9±1.1 ΔmmHg | Vertebral blood flow (Δ%±SE) (anesthetized dogs; 0.1 mg/Kg i.v.): 22±3.4 Δ% | Heart rate (Δbeats/min.±SE) (anesthetized dogs; 0.3 mg/Kg i.v.): 22±3.5 Δbeats/min. | Mean blood pressure (ΔmmHg±SE) (anesthetized dogs; 0.3 mg/Kg i.v.): -21±2.8 ΔmmHg | Vertebral blood flow (Δ%±SE) (anesthetized dogs; 0.3 mg/Kg i.v.): 67±7.1 Δ% | Heart rate (Δbeats/min.±SE) (anesthetized dogs; 1.0 mg/Kg i.v.): 44±4.8 Δbeats/min. | Mean blood pressure (ΔmmHg±SE) (anesthetized dogs; 1.0 mg/Kg i.v.): -32±3.5 ΔmmHg | Vertebral blood flow (Δ%±SE) (anesthetized dogs; 1.0 mg/Kg i.v.): 124±13.8 Δ%

CCOC(=O)C1=C(C)NC(C)=C(C(=O)OCCN(C)Cc2ccccc2)C1c1cccc([N+](=O)[O-])c1 (stereo not drawn) [R5=C2H5O, A=CH2CH2, R3=drawing 10, R4=CH3, 2,6-Dimethyl-4-(3'-nitrophenyl)-1,4-dihydropyridine-3,5-dicarboxylic acid 3-β-(N-benzyl-N-methylamino)ethyl ester 5-ethyl ester]
LD50 (in vivo): 15 mg/kg

CCOC(=O)C1=C(C)NC(C)=C(C(=O)OCCN(C)Cc2ccc(OC)cc2)C1c1cccc([N+](=O)[O-])c1 (stereo not shown) [R5=C2H5O, A=CH2CH2, R3=drawing 12, R4=CH3]
LD50 (in vivo): 10 mg/kg

CCOC(=O)C1=C(C)NC(C)=C(C(=O)OCCN(C)Cc2ccc(Cl)cc2)C1c1cccc([N+](=O)[O-])c1 (stereo not shown) [R5=C2H5O, A=CH2CH2, R3=drawing 13, R4=CH3]
LD50 (in vivo): 12 mg/kg

CC(=O)C1=C(C)NC(C)=C(C(=O)OCCN(C)Cc2ccccc2)C1c1cccc([N+](=O)[O-])c1 (stereo not drawn) [R5=CH3, A=CH2CH2, R3=drawing 14, R4=CH3, 3-Acetyl-2,6-dimethyl-4-(3'-nitrophenyl)-1,4-dihydropyridine-5-carboxylic acid 3-β-(N-benzyl-N-methylamino)ethyl ester]
LD50 (in vivo): 40 mg/kg

CC(=O)C1=C(C)NC(C)=C(C(=O)OCCN(C)Cc2ccc(Cl)cc2)C1c1cccc([N+](=O)[O-])c1 (stereo not drawn) [R5=CH3, A=CH2CH2, R3=drawing 15, R4=CH3, 3-Acetyl-2,6-dimethyl-4-(3'-nitrophenyl)-1,4-dihydropyridine-5-carboxylic acid 3-β-(N-p-chlorobenzyl-N-methylamino)ethyl ester]
LD50 (in vivo): 45 mg/kg

CCN(CCOC(=O)C1=C(C)NC(C)=C(C(=O)OC(C)C)C1c1cccc([N+](=O)[O-])c1)Cc1ccccc1 (stereo not drawn) [R5=drawing 11, A=CH2CH2, R3=drawing 10, R4=C2H5, 2,6-Dimethyl-4-(3'-nitrophenyl)-1,4-dihydropyridine-3,5-dicarboxylic acid 3-β-(N-benzyl-N-ethylamino)ethyl ester 5-isopropyl ester]
LD50 (in vivo): 12 mg/kg

CC1=C(C(=O)OCCN(C)Cc2ccccc2)C(c2cccc([N+](=O)[O-])c2)C(C(=O)OC(C)C)=C(C)N1 (stereo not drawn) [R5=drawing 11, A=CH2CH2, R3=drawing 10, R4=CH3, 2,6-Dimethyl-4-(3'-nitrophenyl)-1,4-dihydropyridine-3,5-dicarboxylic acid 3-β-(N-benzyl-N-methylamino)ethyl ester 5-isopropyl ester]
LD50 (in vivo): 15 mg/kg

COC(=O)C1=C(C)NC(C)=C(C(=O)OC)C1c1ccccc1C#N [reference compound]
pH (of solubility determination) ([1]; known compounds, 25° C): 5.80 | solubility ([1]; known compounds, 25° C, at the given pH, read-out: Solubility): 10 µg/mL (≈ 30.6 µM) | solubility ([1]; known compounds, pH 4.00, 25° C, read-out: Solubility at pH 4.00): 1 µg/mL (≈ 3.06 µM) | Femoral blood flow (FBF %) [2]: 109 ± 28.0% | Vertebral blood flow (VBF Δ %) [2]: 97 ± 16.0 Δ % | Blood pressure change (Δ mmHg) [2]: -38 ± 6.0 Δ mmHg | Separation ratio (percent increase of vertebral blood flow / that of femoral blood flow) [2]: 1.20 ± 0.27 | LD50 (in vivo): 7.4 mg/kg
